Structures are written as SMILES. Values joined by “and” are separate entries in the source; they are usually repeats but may differ in a detail not shown here. Equal entries are not always repeated.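 Interpolation was linear, between the two tested concentrations surrounding the appropriate level; five concentrations were tested over 48 hours in 96-well plates. GI50: concentration for 50% inhibition of growth.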 Active and inactive are the calls of the source. Rule as the data show it: active = GI50 up to about 1.1 µM and inactive = higher. Some results are limits rather than exact numbers.

The source of these data is ChEMBL document CHEMBL1201862, “PubChem BioAssay data set” (2004).

What all share (experiment): NCI-60 cell line screen, 48 h
The subject of test [1] is HCC 2998.
For test [2], the system named is MDA-MB-231.
In test [3] the test system is OVCAR-8.
For test [4], the system named is RXF 393.
Test [5] relates to SF-295.
Test [6] relates to UACC-257.
The subject of test [7] is 786-0.
The test system of test [8] is A498.
The test system of test [9] is ACHN.
Test [10] relates to CAKI-1.
Test [11] concerns CCRF-CEM.
In test [12] the test system is DU-145.
For test [13], the system named is EKVX.
Test [14] relates to HCT-15.
In test [15] the test system is HOP-62.
Test [16] concerns Hs-578T.
The subject of test [17] is LOX IMVI.
For test [18], the system named is MCF7.
Test [19] concerns MOLT-4.
Test [20] deals with NCI-H23.
Test [21] has as its system NCI/ADR-RES.
For test [22], the system named is OVCAR-4.
Test [23] relates to PC-3.
Test [24] concerns SF-268.
The test system of test [25] is SF-539.
Test [26] concerns SK-MEL-5.
Test [27] concerns SNB-19.
Test [28] has as its system SNB-75.
In test [29] the test system is TK-10.
Test [30] relates to UACC-62.

In the case of `CN(C)CC1CCCCCCCCCCC1=O` (centres undefined), the GI50 in [1], in test [2], in [3], in test [4], in test [5] and in test [6] was > 10 µM (inactive) throughout.

Consider `CC1OC(OC2C(OC(=O)[C@]34CCC(C)(C)C[C@H]3C3=CC[C@@H]5[C@@]6(C)CC[C@H](OC7OC(C(=O)O)C(O)C(OC8OCC(O)C(O)C8O)C7O)C(C)(C)[C@@H]6CC[C@@]5(C)[C@]3(C)CC4)OCC(O)C2O)C(O)C(OC2OCC(O)C(O)C2O)C1OC1OCC(O)C(OC2OCC(O)C(O)C2O)C1O` (some centres undefined), for which the GI50 in test [7] was 12.1 µM (inactive) and 21.7 µM (inactive); in [8], 2.66 µM (inactive) and 2.28 µM (inactive); in test [9], 7.28 µM (inactive) and 12.3 µM (inactive); in [10], 5.93 µM (inactive) and 10.7 µM (inactive); in test [11] it was 14.6 µM (inactive) and 13.2 µM (inactive); in [12], 15 µM (inactive) and 28.2 µM (inactive). In addition, the GI50 in [13] is 17.4 µM (inactive) and 9.31 µM (inactive); in [1], 2 µM (inactive) and 3.89 µM (inactive); in test [14], 18.6 µM and 15.3 µM; in test [15], 14.9 µM (inactive) and 16.9 µM (inactive); in test [16], 26.6 µM (inactive) and 18.4 µM (inactive); in test [17] it was 10.8 µM (inactive) and 13.4 µM (inactive). Also, the GI50 in test [18] is 7.93 µM (inactive) and 5.35 µM (inactive); in [2], 3.3 µM (inactive) and 3.16 µM (inactive); in test [19], 9.91 µM (inactive) and 17.9 µM (inactive); in [20] it was 7.06 µM (inactive) and 13.9 µM (inactive); in [21], 7.55 µM (inactive) and 14.4 µM (inactive); in test [22], 7.96 µM (inactive) and 14.3 µM (inactive). Also, the GI50 was 13.2 µM (inactive) and 17.5 µM (inactive) in test [3]; 9.68 µM (inactive) and 11.1 µM (inactive) in [23]; 15 µM (inactive) and 18.2 µM (inactive) in test [4]; 16.7 µM (inactive) and 8.51 µM (inactive) in [24]; 20.5 µM (inactive) in test [25]; 14.5 µM (inactive) and 18.4 µM (inactive) in test [26]. The GI50 in test [27] was 9.86 µM (inactive) and 14.2 µM (inactive); in [28], 12.2 µM (inactive) and 14.1 µM (inactive); in test [29] it was 11.2 µM (inactive); in [30], 16.4 µM (inactive) and 28.8 µM (inactive).
